Results published in PMC9279635 (Acta Pharmaceutica Sinica. B, 2021).

Experiments:
Assay type in all cases: biochemical
DDR2 = target: T1, DDR2 (Homo sapiens, UniProt Q16832); assay: ELISA kinase assay, DDR2; details: DDR2 IC50, two separate experiments
T1 sequence (Q16832 22-855): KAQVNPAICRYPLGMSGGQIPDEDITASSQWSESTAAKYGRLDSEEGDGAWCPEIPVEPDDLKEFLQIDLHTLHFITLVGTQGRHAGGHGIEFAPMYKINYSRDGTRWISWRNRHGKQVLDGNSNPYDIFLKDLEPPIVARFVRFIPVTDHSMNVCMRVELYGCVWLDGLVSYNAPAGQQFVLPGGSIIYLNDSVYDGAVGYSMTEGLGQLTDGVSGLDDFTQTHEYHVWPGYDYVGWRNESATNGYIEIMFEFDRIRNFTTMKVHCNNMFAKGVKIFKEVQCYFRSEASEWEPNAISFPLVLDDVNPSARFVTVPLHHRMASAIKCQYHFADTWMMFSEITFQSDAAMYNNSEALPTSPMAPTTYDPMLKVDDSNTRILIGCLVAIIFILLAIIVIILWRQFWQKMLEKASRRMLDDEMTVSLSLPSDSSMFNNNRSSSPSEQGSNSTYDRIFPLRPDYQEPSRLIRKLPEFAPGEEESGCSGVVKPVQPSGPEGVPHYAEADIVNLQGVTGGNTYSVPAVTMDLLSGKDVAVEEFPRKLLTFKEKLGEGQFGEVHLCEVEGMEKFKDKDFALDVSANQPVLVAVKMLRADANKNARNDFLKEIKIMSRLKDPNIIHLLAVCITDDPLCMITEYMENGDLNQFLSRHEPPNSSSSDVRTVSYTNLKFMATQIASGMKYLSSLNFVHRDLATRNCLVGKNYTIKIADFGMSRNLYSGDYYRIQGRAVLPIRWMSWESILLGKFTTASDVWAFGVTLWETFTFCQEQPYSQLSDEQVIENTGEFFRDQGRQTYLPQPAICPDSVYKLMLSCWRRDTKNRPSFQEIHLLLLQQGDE

Flt-3 = target: T2, Flt-3 (Homo sapiens, UniProt P36888); assay: ELISA kinase assay, Flt-3; details: for inhibition at 0.01 µM: read-out: Flt-3 inhibition @10 nmol/L; for inhibition at 0.1 µM: read-out: Flt-3 inhibition@100 nmol/L
T2 sequence (P36888 27-993): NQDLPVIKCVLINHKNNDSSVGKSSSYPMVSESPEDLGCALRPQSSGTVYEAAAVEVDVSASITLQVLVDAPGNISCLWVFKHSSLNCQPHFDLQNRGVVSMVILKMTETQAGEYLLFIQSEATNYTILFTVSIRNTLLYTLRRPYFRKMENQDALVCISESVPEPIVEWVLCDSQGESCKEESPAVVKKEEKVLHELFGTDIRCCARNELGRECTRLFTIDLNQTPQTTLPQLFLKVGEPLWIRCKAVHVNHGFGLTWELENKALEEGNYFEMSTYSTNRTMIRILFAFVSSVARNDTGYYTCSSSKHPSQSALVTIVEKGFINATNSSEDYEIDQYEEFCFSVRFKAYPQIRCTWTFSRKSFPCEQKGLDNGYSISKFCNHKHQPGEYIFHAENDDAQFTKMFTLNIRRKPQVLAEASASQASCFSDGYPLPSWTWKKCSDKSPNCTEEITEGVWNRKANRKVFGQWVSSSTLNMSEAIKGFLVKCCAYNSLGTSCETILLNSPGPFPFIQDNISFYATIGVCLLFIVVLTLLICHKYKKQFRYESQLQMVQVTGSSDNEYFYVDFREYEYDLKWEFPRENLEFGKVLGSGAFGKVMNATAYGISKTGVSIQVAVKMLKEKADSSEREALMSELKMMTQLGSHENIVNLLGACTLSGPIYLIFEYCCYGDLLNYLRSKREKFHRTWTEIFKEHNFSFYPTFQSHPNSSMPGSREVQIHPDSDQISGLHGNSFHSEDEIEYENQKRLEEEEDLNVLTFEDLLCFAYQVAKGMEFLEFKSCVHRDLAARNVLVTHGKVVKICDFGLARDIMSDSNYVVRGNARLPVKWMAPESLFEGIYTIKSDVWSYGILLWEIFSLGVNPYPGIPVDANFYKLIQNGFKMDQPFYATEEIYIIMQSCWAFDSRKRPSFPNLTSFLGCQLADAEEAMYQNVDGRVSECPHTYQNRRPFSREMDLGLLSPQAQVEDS

RET = RET (Homo sapiens, UniProt P07949); assay: ELISA kinase assay, RET; details: for inhibition at 0.01 µM: read-out: RET inhibition @10 nmol/L; for inhibition at 0.1 µM: read-out: RET inhibition @100 nmol/L
Chain of RET (P07949 29-1114): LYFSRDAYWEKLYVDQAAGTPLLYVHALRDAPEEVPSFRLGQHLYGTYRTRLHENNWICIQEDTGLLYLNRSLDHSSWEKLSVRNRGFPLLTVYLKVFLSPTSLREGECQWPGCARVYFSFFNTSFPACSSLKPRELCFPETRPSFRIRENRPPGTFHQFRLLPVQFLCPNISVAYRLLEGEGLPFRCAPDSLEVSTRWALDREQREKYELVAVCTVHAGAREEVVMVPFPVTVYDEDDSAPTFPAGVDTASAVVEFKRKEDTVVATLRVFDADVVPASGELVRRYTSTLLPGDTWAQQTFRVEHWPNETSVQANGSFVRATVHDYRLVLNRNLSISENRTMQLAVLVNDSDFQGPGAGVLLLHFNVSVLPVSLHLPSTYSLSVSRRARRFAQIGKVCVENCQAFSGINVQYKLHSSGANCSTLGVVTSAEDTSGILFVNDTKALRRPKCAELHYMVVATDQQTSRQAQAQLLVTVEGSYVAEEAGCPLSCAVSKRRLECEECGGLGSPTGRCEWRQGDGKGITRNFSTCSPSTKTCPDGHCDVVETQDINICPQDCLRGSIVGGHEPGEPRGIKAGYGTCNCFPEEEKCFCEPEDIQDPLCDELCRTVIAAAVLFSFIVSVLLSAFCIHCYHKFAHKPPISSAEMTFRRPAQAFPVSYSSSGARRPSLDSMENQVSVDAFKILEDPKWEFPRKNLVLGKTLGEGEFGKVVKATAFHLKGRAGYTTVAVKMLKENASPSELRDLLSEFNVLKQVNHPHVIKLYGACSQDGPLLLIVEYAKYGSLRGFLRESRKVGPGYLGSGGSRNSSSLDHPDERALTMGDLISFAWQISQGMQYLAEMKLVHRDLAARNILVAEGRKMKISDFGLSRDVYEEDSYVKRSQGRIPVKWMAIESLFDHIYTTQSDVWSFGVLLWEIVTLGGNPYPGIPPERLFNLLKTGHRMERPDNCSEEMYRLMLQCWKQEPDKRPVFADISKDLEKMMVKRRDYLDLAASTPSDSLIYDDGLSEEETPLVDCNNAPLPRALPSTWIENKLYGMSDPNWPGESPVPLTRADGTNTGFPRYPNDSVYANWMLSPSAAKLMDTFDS

IC50 (DDR2)	Structure (SMILES)	also measured
4.9 ± 1.1 nM	Cc1ccc(C(=O)Nc2cccc(C(F)(F)F)c2)cc1-c1ccc2c(c1)NC(=O)C2 [Compound 9, 4-Methyl-3-(2-oxoindolin-6-yl)-N-(3-(trifluoromethyl)phenyl)benzamide]	–
20.9 ± 5.2 nM	Cc1ccc(C(=O)Nc2cccc(C(F)(F)F)c2)cc1-c1ccc2c(c1)COCC2 [Compound 10, 3-(Isochroman-7-yl)-4-methyl-N-(3-(trifluoromethyl)phenyl)benzamide]	–
1.6 ± 0.1 nM	Cc1ccc(C(=O)Nc2cccc(C(F)(F)F)c2)cc1-c1ccc2ccncc2c1 [Compound 11, 3-(Isoquinolin-7-yl)-4-methyl-N-(3-(trifluoromethyl)phenyl)benzamide]	–
36.5 ± 1 nM	Cc1ccc(C(=O)Nc2cccc(C(F)(F)F)c2)cc1-c1ccc2cnccc2c1 [Compound 12, 3-(Isoquinolin-6-yl)-4-methyl-N-(3-(trifluoromethyl)phenyl)benzamide]	–
2.6 ± 0.1 nM	Cc1ccc(C(=O)Nc2cccc(C(F)(F)F)c2)cc1-c1ccc2ncncc2c1 [Compound 13, 4-Methyl-3-(quinazolin-6-yl)-N-(3-(trifluoromethyl)phenyl)benzamide]	–
3.8 ± 0.2 nM	Cc1ccc(C(=O)Nc2cccc(C(F)(F)F)c2)cc1-c1ccc2ncnc(N)c2c1 [Compound 14, 3-(4-Aminoquinazolin-6-yl)-4-methyl-N-(3-(trifluoromethyl)phenyl)benzamide]	–
1.9 ± 0.4 nM	Cc1ccc(C(=O)Nc2cccc(C(F)(F)F)c2)cc1-c1ccc2nc(N)ncc2c1 [Compound 15, 3-(2-Aminoquinazolin-6-yl)-4-methyl-N-(3-(trifluoromethyl)phenyl)benzamide]	–
9.9 ± 1 nM	Cc1ccc(C(=O)Nc2cccc(C(F)(F)F)c2)cc1-c1ccc2nc(NC3CC3)ncc2c1 [Compound 16, 3-(2-(Cyclopropylamino)quinazolin-6-yl)-4-methyl-N-(3-(trifluoromethyl)phenyl)benzamide]	–
10.5 ± 1 nM	Cc1ccc(C(=O)Nc2cccc(C(F)(F)F)c2)cc1-c1ccc2nc(NC3CCN(C)CC3)ncc2c1 [Compound 17, 4-Methyl-3-(2-((1-methylpiperidin-4-yl)amino)quinazolin-6-yl)-N-(3-(trifluoromethyl)phenyl)benzamide]	–
3.4 ± 0.7 nM	Cc1ccc(C(=O)Nc2cccc(C(F)(F)F)c2)cc1-c1ccc2nc(NCCN3CCOCC3)ncc2c1 [Compound 18, 4-Methyl-3-(2-((2-morpholinoethyl)amino)quinazolin-6-yl)-N-(3-(trifluoromethyl)phenyl)benzamide]	–
42.4 ± 2.3 nM	Cc1ccc(C(=O)Nc2cccc(C(F)(F)F)c2)cc1-c1ccc2nc(N3CCN(C)CC3)ncc2c1 [Compound 19, 4-Methyl-3-(2-(4-methylpiperazin-1-yl)quinazolin-6-yl)-N-(3-(trifluoromethyl)phenyl)benzamide]	–
5.7 ± 0.3 nM	Cc1ccc(C(=O)Nc2cccc(C(F)(F)F)c2)cc1-c1ccc2nc(Nc3ccc(N4CCN(C)CC4)cc3)ncc2c1 [Compound 20, 4-Methyl-3-(2-((4-(4-methylpiperazin-1-yl)phenyl)amino)quinazolin-6-yl)-N-(3-(trifluoromethyl)phenyl)benzamide]	–
6.3 ± 0.5 nM	Cc1ccc(C(=O)Nc2cccc(C(F)(F)F)c2)cc1-c1ccc2nc(Nc3cccc(N4CCN(C)CC4)c3)ncc2c1 [Compound 21, 4-Methyl-3-(2-((3-(4-methylpiperazin-1-yl)phenyl)amino)quinazolin-6-yl)-N-(3-(trifluoromethyl)phenyl)benzamide]	–
6.5 ± 1.5 nM	Cc1ccc(C(=O)Nc2cccc(C(F)(F)F)c2)cc1-c1ccc2nc(Nc3cnn(C)c3)nc(N)c2c1 [Compound 23, 3-(4-Amino-2-((1-methyl-1H-pyrazol-4-yl)amino)quinazolin-6-yl)-4-methyl-N-(3-(trifluoromethyl)phenyl)benzamide]	–
1.7 ± 0.3 nM	Cc1ccc(C(=O)Nc2cc(CN3CCN(C)CC3)cc(C(F)(F)F)c2)cc1-c1ccc2nc(Nc3cnn(C)c3)ncc2c1 [Compound 25, 4-Methyl-3-(2-((1-methyl-1H-pyrazol-4-yl)amino)quinazolin-6-yl)-N-(3-((4-methylpiperazin-1-yl)methyl)-5-(trifluoromethyl)phenyl)benzamide]	inhibition at 0.01 µM (Flt-3): 93.5%; inhibition at 0.01 µM (RET): 93.9%
2.2 ± 0.3 nM	Cc1ccc(C(=O)Nc2cc(CN3CCN(C(C)C)CC3)cc(C(F)(F)F)c2)cc1-c1ccc2nc(Nc3cnn(C)c3)ncc2c1 [Compound 26, N-(3-((4-Isopropylpiperazin-1-yl)methyl)-5-(trifluoromethyl)phenyl)-4-methyl-3-(2-((1-methyl-1H-pyrazol-4-yl)amino)quinazolin-6-yl)benzamide]	inhibition at 0.01 µM (Flt-3): 90.1%; inhibition at 0.01 µM (RET): 92.7%
3.1 ± 1 nM	Cc1ccc(C(=O)Nc2cc(CN3CCN(C4CCCC4)CC3)cc(C(F)(F)F)c2)cc1-c1ccc2nc(Nc3cnn(C)c3)ncc2c1 [Compound 27, N-(3-((4-Cyclopentylpiperazin-1-yl)methyl)-5-(trifluoromethyl)phenyl)-4-methyl-3-(2-((1-methyl-1H-pyrazol-4-yl)amino)quinazolin-6-yl)benzamide]	inhibition at 0.01 µM (Flt-3): 94.4%; inhibition at 0.01 µM (RET): 92.8%
1.8 ± 0.1 nM	CC(=O)N1CCN(Cc2cc(NC(=O)c3ccc(C)c(-c4ccc5nc(Nc6cnn(C)c6)ncc5c4)c3)cc(C(F)(F)F)c2)CC1 [Compound 28, N-(3-((4-Acetylpiperazin-1-yl)methyl)-5-(trifluoromethyl)phenyl)-4-methyl-3-(2-((1-methyl-1H-pyrazol-4-yl)amino)quinazolin-6-yl)benzamide]	inhibition at 0.01 µM (Flt-3): 92.4%; inhibition at 0.01 µM (RET): 91.8%
2.8 ± 0.2 nM	Cc1ccc(C(=O)Nc2cc(CN3CCCN(C)CC3)cc(C(F)(F)F)c2)cc1-c1ccc2nc(Nc3cnn(C)c3)ncc2c1 [Compound 30, 4-Methyl-N-(3-((4-methyl-1,4-diazepan-1-yl)methyl)-5-(trifluoromethyl)phenyl)-3-(2-((1-methyl-1H-pyrazol-4-yl)amino)quinazolin-6-yl)benzamide]	inhibition at 0.01 µM (Flt-3): 97%; inhibition at 0.01 µM (RET): 93.2%
2.9 ± 0.2 nM	Cc1ccc(C(=O)Nc2cc(CN3C[C@H]4CC[C@@H](C3)N4C)cc(C(F)(F)F)c2)cc1-c1ccc2nc(Nc3cnn(C)c3)ncc2c1 [Compound 31, 4-Methyl-3-(2-((1-methyl-1H-pyrazol-4-yl)amino)quinazolin-6-yl)-N-(3-(((1R,5S)-8-methyl-3,8-diazabicyclo[3.2.1]octan-3-yl)methyl)-5-(trifluoromethyl)phenyl)benzamide]	inhibition at 0.01 µM (Flt-3): 96%; inhibition at 0.01 µM (RET): 95%
–	CC(C)c1ccc(C(=O)Nc2cccc(C(F)(F)F)c2)cc1-c1ccc2nc(Nc3cnn(C)c3)ncc2c1 [Compound 34, 4-Isopropyl-3-(2-((1-methyl-1H-pyrazol-4-yl)amino)quinazolin-6-yl)-N-(3-(trifluoromethyl)phenyl)benzamide]	inhibition at 0.1 µM (Flt-3): 56.8%; inhibition at 0.1 µM (RET): 54.5%
–	Cn1cc(Nc2ncc3cc(-c4cc(C(=O)Nc5cccc(C(F)(F)F)c5)ccc4C4CC4)ccc3n2)cn1 [Compound 35, 4-Cyclopropyl-3-(2-((1-methyl-1H-pyrazol-4-yl)amino)quinazolin-6-yl)-N-(3-(trifluoromethyl)phenyl)benzamide]	inhibition at 0.1 µM (Flt-3): 37.1%; inhibition at 0.1 µM (RET): 50.7%
